Reference: PMC7402526, “An in vitro quantitative systems pharmacology approach for deconvolving mechanisms of drug-induced, multilineage cytopenias” (PLoS Computational Biology, 2020)

Columns and labels:
[1] = test system: total viable cells (totalViableCells); assay: MLTA, total live cells concentration-response; assay type: cell-based; conditions: Homo sapiens, 144 h, 6 days, normalized to vehicle control, read-out: total_live normalized cell count
How it was run: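 Freeze-thawed primary human bone marrow CD34+ cells in SFEM II with cytokine cocktail, drug added day 0, 6 days at 37°C, 5% CO2. Live/dead counts by 17-parameter flow cytometry with DAPI exclusion, bead-normalized, volume-corrected to cells/mL. Normalized per donor to mean of six vehicle wells; 2–7 donors pooled.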

[2] = test system: multi-potent progenitors (MPPs); assay: MLTA, MPPs: concentration-response and QSP model fit; assay type: cell-based, human; conditions: Homo sapiens, 144 h
How it was run: (§1)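 Parameters come from fitting an Emax-based QSP model, with L1 regularization and Emax ranging 0–2, to vehicle-normalized, bead-corrected flow cytometry counts. Counts came from human bone marrow CD34+ cells treated from day 0 through a 6-day multi-lineage cytokine culture in SFEM II, using 2–7 donors per drug.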

[3] = test system: granulocyte progenitor (Gran-lin prog); assay: MLTA, GranP: concentration-response and QSP model fit; assay type: cell-based, human; conditions: Homo sapiens, 144 h
How it was run: as §1

[4] = test system: late erythroid cells (Eryth II); assay: MLTA, ErythII: concentration-response and QSP model fit; assay type: cell-based, human; conditions: Homo sapiens, 144 h
How it was run: as §1

[5] = test system: neutrophils (neutrophil-lin); assay: MLTA, Neut: concentration-response and QSP model fit; assay type: cell-based, human; conditions: Homo sapiens, Neutrophil, 144 h
How it was run: as §1

[6] = test system: early erythroid cells (Eryth I); assay: MLTA, ErythI: concentration-response and QSP model fit; assay type: cell-based, human
How it was run: as §1

[7] = test system: hematopoietic stem cells (HSCs); assay: Multi-lineage toxicity assay (MLTA), HSCs: concentration-response and QSP model fit; assay type: cell-based, human
How it was run: as §1

[8] = cell-killing component, max(0, EmaxT-1)

Compound: CC(=O)O[C@H]1C(=O)[C@@]2(C)[C@H]([C@H](OC(=O)c3ccccc3)[C@]3(O)C[C@H](OC(=O)[C@H](O)[C@@H](NC(=O)c4ccccc4)c4ccccc4)C(C)=C1C3(C)C)[C@]1(OC(C)=O)CO[C@@H]1C[C@@H]2O [paclitaxel]
- viability at 0.0002 µM ([1]; dose 0.2 nM): 102%
- viability at 0.001 µM ([1]; dose 1 nM): 110%
- viability at 0.005 µM ([1]; dose 5 nM): 75.9%
- viability at 0.025 µM ([1]; dose 25 nM): 1.22%
- viability at 0.1 µM ([1]; dose 100 nM): 0.201%
- viability at 0.5 µM ([1]; dose 500 nM): 0.291%
- viability at 2.5 µM ([1]; dose 2500 nM): 0.232%
- activity at 0.0002 µM ([2]; dose 0.2 nM, 6 days, normalized to vehicle control, read-out: MPPs normalized cell count): 78.7%
- activity at 0.001 µM ([2]; dose 1 nM, 6 days, normalized to vehicle control, read-out: MPPs normalized cell count): 90%
- activity at 0.005 µM ([2]; dose 5 nM, 6 days, normalized to vehicle control, read-out: MPPs normalized cell count): 71.3%
- activity at 0.025 µM ([2]; dose 25 nM, 6 days, normalized to vehicle control, read-out: MPPs normalized cell count): 28%
- activity at 0.1 µM ([2]; dose 100 nM, 6 days, normalized to vehicle control, read-out: MPPs normalized cell count): 2.32%
- activity at 0.5 µM ([2]; dose 500 nM, 6 days, normalized to vehicle control, read-out: MPPs normalized cell count): 0.649%
- activity at 2.5 µM ([2]; dose 2500 nM, 6 days, normalized to vehicle control, read-out: MPPs normalized cell count): 0.406%
- Emax ([2]; parameter from QSP model fitting, read-out: Emax_drug_MPP): 0.18%
- activity at 0.0002 µM ([3]; dose 0.2 nM, 6 days, normalized to vehicle control, read-out: GranPs normalized cell count): 114%
- activity at 0.001 µM ([3]; dose 1 nM, 6 days, normalized to vehicle control, read-out: GranPs normalized cell count): 112%
- activity at 0.005 µM ([3]; dose 5 nM, 6 days, normalized to vehicle control, read-out: GranPs normalized cell count): 106%
- activity at 0.025 µM ([3]; dose 25 nM, 6 days, normalized to vehicle control, read-out: GranPs normalized cell count): 0.213%
- activity at 0.1 µM ([3]; dose 100 nM, 6 days, normalized to vehicle control, read-out: GranPs normalized cell count): 0.0154%
- activity at 0.5 µM ([3]; dose 500 nM, 6 days, normalized to vehicle control, read-out: GranPs normalized cell count): 0.032%
- activity at 2.5 µM ([3]; dose 2500 nM, 6 days, normalized to vehicle control, read-out: GranPs normalized cell count): 0.0153%
- Emax ([3]; parameter from QSP model fitting, read-out: Emax_drug_GranP): 0.04%
- EC50 ([4]; QSP model fit of 6-day MLTA data, read-out: EC50ErythII): 20.2 nM
- activity at 0.0002 µM ([4]; dose 0.2 nM, 6 days, normalized to vehicle control, read-out: ErythII normalized cell count): 90.9%
- activity at 0.001 µM ([4]; dose 1 nM, 6 days, normalized to vehicle control, read-out: ErythII normalized cell count): 107%
- activity at 0.005 µM ([4]; dose 5 nM, 6 days, normalized to vehicle control, read-out: ErythII normalized cell count): 56.5%
- activity at 0.025 µM ([4]; dose 25 nM, 6 days, normalized to vehicle control, read-out: ErythII normalized cell count): 0.128%
- activity at 0.1 µM ([4]; dose 100 nM, 6 days, normalized to vehicle control, read-out: ErythII normalized cell count): 0.0395%
- activity at 0.5 µM ([4]; dose 500 nM, 6 days, normalized to vehicle control, read-out: ErythII normalized cell count): 0.0174%
- activity at 2.5 µM ([4]; dose 2500 nM, 6 days, normalized to vehicle control, read-out: ErythII normalized cell count): 0.00196%
- Emax ([4]; parameter from QSP model fitting, read-out: Emax_drug_ErythroidII): 7.1%
- EC50 ([5]; QSP model fit of 6-day MLTA data): 25.1 nM
- activity at 0.0002 µM ([5]; dose 0.2 nM, 6 days, normalized to vehicle control, read-out: Neut normalized cell count): 88.3%
- activity at 0.001 µM ([5]; dose 1 nM, 6 days, normalized to vehicle control, read-out: Neut normalized cell count): 80.1%
- activity at 0.005 µM ([5]; dose 5 nM, 6 days, normalized to vehicle control, read-out: Neut normalized cell count): 52.3%
- activity at 0.025 µM ([5]; dose 25 nM, 6 days, normalized to vehicle control, read-out: Neut normalized cell count): 0.045%
- activity at 0.1 µM ([5]; dose 100 nM, 6 days, normalized to vehicle control, read-out: Neut normalized cell count): 0.0394%
- activity at 0.5 µM ([5]; dose 500 nM, 6 days, normalized to vehicle control, read-out: Neut normalized cell count): 0%
- activity at 2.5 µM ([5]; dose 2500 nM, 6 days, normalized to vehicle control, read-out: Neut normalized cell count): 0%
- Emax ([5]; parameter from QSP model fitting, read-out: Emax_drug_Neut): 21.4%
- EC50 ([6]; Homo sapiens, 144 h, QSP model fit of 6-day MLTA data, read-out: EC50ErythI): 15.4 nM
- activity at 0.0002 µM ([6]; Homo sapiens, 144 h, dose 0.2 nM, 6 days, normalized to vehicle control, read-out: ErythI normalized cell count): 124%
- activity at 0.001 µM ([6]; Homo sapiens, 144 h, dose 1 nM, 6 days, normalized to vehicle control, read-out: ErythI normalized cell count): 112%
- activity at 0.005 µM ([6]; Homo sapiens, 144 h, dose 5 nM, 6 days, normalized to vehicle control, read-out: ErythI normalized cell count): 83.5%
- activity at 0.025 µM ([6]; Homo sapiens, 144 h, dose 25 nM, 6 days, normalized to vehicle control, read-out: ErythI normalized cell count): 2.87%
- activity at 0.1 µM ([6]; Homo sapiens, 144 h, dose 100 nM, 6 days, normalized to vehicle control, read-out: ErythI normalized cell count): 0.445%
- activity at 0.5 µM ([6]; Homo sapiens, 144 h, dose 500 nM, 6 days, normalized to vehicle control, read-out: ErythI normalized cell count): 0.574%
- activity at 2.5 µM ([6]; Homo sapiens, 144 h, dose 2500 nM, 6 days, normalized to vehicle control, read-out: ErythI normalized cell count): 0.379%
- Emax ([6]; Homo sapiens, 144 h, parameter from QSP model fitting, read-out: Emax_drug_ErythroidI): 147%
- EmaxCK,ErythI [6, 8]: 0.466 day⁻¹
- EC50 ([7]; Homo sapiens, Hematopoietic stem cell, 144 h, QSP model fit of 6-day MLTA data): 62.3 nM
- activity at 0.0002 µM ([7]; Homo sapiens, Hematopoietic stem cell, 144 h, dose 0.2 nM, 6 days, normalized to vehicle control, read-out: HSCs normalized cell count): 109%
- activity at 0.001 µM ([7]; Homo sapiens, Hematopoietic stem cell, 144 h, dose 1 nM, 6 days, normalized to vehicle control, read-out: HSCs normalized cell count): 87.5%
- activity at 0.005 µM ([7]; Homo sapiens, Hematopoietic stem cell, 144 h, dose 5 nM, 6 days, normalized to vehicle control, read-out: HSCs normalized cell count): 118%
- activity at 0.025 µM ([7]; Homo sapiens, Hematopoietic stem cell, 144 h, dose 25 nM, 6 days, normalized to vehicle control, read-out: HSCs normalized cell count): 28.1%
- activity at 0.1 µM ([7]; Homo sapiens, Hematopoietic stem cell, 144 h, dose 100 nM, 6 days, normalized to vehicle control, read-out: HSCs normalized cell count): 4.8%
- activity at 0.5 µM ([7]; Homo sapiens, Hematopoietic stem cell, 144 h, dose 500 nM, 6 days, normalized to vehicle control, read-out: HSCs normalized cell count): 1.08%
- activity at 2.5 µM ([7]; Homo sapiens, Hematopoietic stem cell, 144 h, dose 2500 nM, 6 days, normalized to vehicle control, read-out: HSCs normalized cell count): 1.34%
- Emax ([7]; Homo sapiens, Hematopoietic stem cell, 144 h, parameter from QSP model fitting, read-out: Emax_drug_HSC): 119%
- EmaxCK,HSC [7, 8]: 0.188 day⁻¹
